According to patent US10981021B2, “Method for transiently disrupting a region of the blood-brain barrier of a human” (Carthera, priority 2016, dated 2021):
“And” between values parts separate entries of the source, which are not always exact repeats. Equal values may be shown once.

Tested on: recurrent glioblastoma (GBM)
Experiment: Clinical trial: monthly ultrasound BBB opening followed by carboplatin in recurrent glioblastoma patients
From the text: Patients experiencing recurrence (first, second or third) of a histologically proven de novo glioblastoma (GBM), previously treated with at least the first line standard of care were included (i.e. radiation with concurrent and adjuvant temozolomide). Patients had to have a growing contrast-enhancing tumor of less than 35 mm in diameter and be eligible for carboplatin-based chemotherapy.
The trial was designed as a dose escalation study (Simon et al. 1997) in which the US pressure was increased throughout the study starting at 0.5 and increasing to 1.1 MPa through 5 different “dose” levels (0.50, 0.65, 0.80, 0.95, and 1.1 MPa).
A minimum of three patients were included at each dose level. If none of the patients experienced a dose-limiting toxicity (DLT), the next dose level was opened. If one patient experienced a DLT, three additional patients were enrolled at that dose level.
Patients received US activation and BBB disruption every four weeks. The first treatment was performed at the initial “dose” level for the inclusion group, the second treatment at the next highest dose level, etc. Patients were treated monthly for up to a maximum of six treatments or until there was evidence of tumor progression.
All patients were assessed monthly using MR imaging, blood sampling, and clinical neurological evaluation. Two days prior to each planned ultrasound treatment, tumor status was evaluated on MRI according to the Response Assessment in Neuro-Oncology (RANO) Criteria (Wen et al. 2010). Progression-free survival (PFS) and overall survival (OS) were also assessed. Patients left the study if tumor progression was identified, which defined progression as an increase in tumor size of more than 25% or an increase in T2/FLAIR or as a neurological status degradation (Wen et al. 2010).
In the absence of tumor progression and significant toxicity, the BBB opening session followed by carboplatin injection was scheduled two days after. […]
Carboplatin dose (AUC, area under the curve) administration was calculated based on the Calvert formula taking into account renal function. […]

[1] = per patient, recurrent GBM, monthly US (0.5-1.1 MPa) + SonoVue BBB opening followed by i.v. carboplatin AUC 4-6

For `N.N.O=C([O-])C1(C(=O)[O-])CCC1.[Pt+2]` [Carboplatin], the cerebral carboplatin-related toxicity (GBM patients, carboplatin perfusion started within 60 minutes after US BBB opening) was “No cerebral carboplatin-related toxicity was observed”, the Duration on-study [1] was 3 months (4×) and 2 months (6×) and 2.5 months and >5 months and >4 months and 4 months and still on study and the “Tumor Progression (MRI, FLAIR/ T1Gd) in the acoustic” value [1] was “Yes (5×) and No (9×) and slight”.
